{"source": "patent US11730703B2", "about": "“Nanoparticles for treatment of posterior segment ocular diseases and conditions” (UNIVERSITY OF SOUTH FLORIDA, priority 2017, dated 2023)", "key": {"[1]": {"assay": "In vitro drug release (dialysis membrane tubing, PBS)", "assay_type": "physicochemical", "details": "FIG. 5", "description": "(iii) In vitro Drug Release: The rate of TA release from the NPs was measured by adapting a previously reported method. 40 Dialysis membrane tubing, MWCO 10 000 Da. (Spectrum Laboratories, Rancho Dominguez, Calif.) was soaked in deionized H2O overnight. 1 ml of the NP suspension was added to the dialysis membrane tubing after being briefly sonicated and was placed into 100 ml of PBS covered and stirring at 100 rpm at 37° C. 1 mL samples were removed at predetermined intervals over 10 days and replaced with fresh PBS. Samples were analyzed using UV spectroscopy at a wavelength of 240 nm (lmax) and compared to standard dilutions of TA in PBS (r^2=0.989) to determine the percentage of drug released over 10 days.\n500 μL of 1 mg/mL DIG sol and 500 μL of DIG NPs in (cellulose) dialysis membrane tubing\nSamples were taken in 750 μL increments and the respective amount of PBS was re-added"}, "[2]": {"tested_on": "ARPE-19 cells", "assay": "Cytotoxicity, MTT assay", "assay_type": "cell-based, human", "details": "FIG. 6", "description": "(iv) Cytotoxicity: The cytotoxicity of the TA Nanoparticles was assessed in ARPE-19 cells (cells of a human retinal pigment epithelial cell line) by the 3-(4,5-dimethylthiazol-2-yl)-2,5-diphenyltetrazolium bromide salt (MTT) assay. Briefly, cells were seeded in 24-well plates at a density of 5×10^4 cells/ml for 24 h to achieve confluency before treatment. […] Cell culture media were aspirated, and […] of MTT reagent solution (1 mg/ml) was added to each well. Cells were incubated at 37° C. and 5% CO2 for 4 h, after which the MTT reagent solution was aspirated and 1 mL of DMSO was added to each well. Plates were allowed to shake gently for 10 min before being read by Synergy H4 plate reader (Biotek Industries, Inc., Winooski, Vt.) at absorbance of 570 nm.\nMedia was removed and cells were washed with 500 μL of HBSS prior to treatment.\nCell Treatments • 3 control wells with 500 μL Experimental Media only • 3 wells with DIG sol at 0.5 μM and 1 μM concentrations: (0.5 μM: 9.76 μL DIG sol+490.24 μL Exp. Media) • (1 μM: 19.52 μL DIG sol+480.48 μL Exp. Media) • 3 wells with DIG NPs at 0.5 μM and 1 μM concentrations: (0.5 μM: 1.012 μL DIG NPs+[…] Exp. Media) • (1 μM: 2.024 μL DIG NPs+497.97 μL Exp. Media)\nMTT Cell treatments: same as above w/o CoCl2 step\nPrepare MTT reagent: 0.5 mg/mL (in basal media) and cover with aluminum foil\nRemove media from each well and wash with HBSS […]"}}, "data": [{"smiles": "C[C@H]1O[C@@H](O[C@H]2[C@@H](O)C[C@H](O[C@H]3[C@@H](O)C[C@H](O[C@H]4CC[C@@]5(C)[C@H](CC[C@@H]6[C@@H]5C[C@@H](O)[C@]5(C)[C@@H](C7=CC(=O)OC7)CC[C@]65O)C4)O[C@@H]3C)O[C@@H]2C)C[C@H](O)[C@@H]1O", "note": "[digoxin]", "values": [{"measurement": "Drug release (in words)", "setting": "[1]", "result": "sustained therapeutic release"}, {"measurement": "Cell toxicity (in words)", "setting": "[2]", "result": "relatively low cell toxicity"}]}]}
